Entries after “also recorded” stand apart in the source; their conditions may differ. Where two headings read alike, the source gives them in different places.
What was measured:
H9C2 cells = experiment: cAMP accumulation in H9C2 cells; assay type: cell-based; details: 5 μM ISO, 3 minutes, 10 μM drug
From the text: […] Fludarabine ((+)-2-Fluoro-9-(5-O-phosphono-β-D-arabinofuranosyl)-9H-purin-6-amine) and Cladribine (2-chloro-2′-deoxyadenosine) are anti-cancer drugs, Adefovir (Bis(2,2-dimethylpropanoyloxymethyl)[2-(6-amino-9H-purin-9-yl)ethoxymethyl]phosphonate) and Zidovudine are anti-HIV drugs. Zidovudine-TP is a metabolite of zidovudine which inhibits virus replication. TP; triphosphate. 3-Deazaadenosine, Formycin A (7-Amino-3-(β-D-ribofuranosyl)-1H-pyrazolo[4,3-d]pyrimidine), 2-Far (2-Fluoroadenosine), formycin A ((2S,3R,4S,5R)-2-(7-amino-2H-pyrazolo[5,4-e]pyramidin-3-yl-5-(hydroxymeth-yl)oxolane-3,4-diol), 2-FD (2-Fluoro-2′-deoxyadenosine) and 2′5′ ddAdo (2′5′-dideoxyadenosine) are experimental drugs.
(§1) Mice were anesthetized with 2.5% tribromoethanol (0.010 to 0.015 mL per gram of body weight) injected intraperitoneally, and echocardiography was performed with ultrasonography (ACUSON Sequoia C256, Siemens Medical Solutions, Malvern, Pa.). For acute injection of isoproterenol, forskolin and milrinon, a PE-10 catheter was inserted into the right jugular vein, and drugs were injected at the rate of 1 μl/s. cAMP accumulation assay in H9C2 cells, a cardiac myoblast cell line, was examined as previously described.

cardiac myocytes = experiment: ISO-induced apoptosis in cultured cardiac myocytes (DNA fragmentation ELISA); assay type: cell-based; details: 100 μM ISO, 48 h
Description: Cultured cardiac myocytes were incubated with 100 μM ISO in the presence or absence of AC5 inhibitors at the indicated concentrations for 48 h.

AC6 = experiment: Forskolin-stimulated cAMP production in heart membrane preparations from AC6Tg; assay type: biochemical, mouse; details: forskolin 50 μM
[1] = tested on: C57Bl/6 mice, chronic ISO infusion; experiment: Chronic ISO infusion heart failure model; assay type: in vivo, mouse
From the text: ISO with or without AC5 inhibitors were chronically infused with osmotic mini-pump implanted subcutaneously at indicated doses for 1 week in c57Bl/6 mice. Mice were then subjected to echocardiography (a) and the hearts were removed and subjected to pathological examinations such as myocardial apoptosis (b) and fibrosis (c). n=4-8.
In C57Bl/6 mice, ISO with or without AC5 inhibitors or metoprolol were chronically infused with an osmotic mini-pump at the indicated doses for 1 week. Mice were then subjected to echocardiography (a) and heart tissue were subjected to a myocardial apoptosis assay (b). *, p<0.01 vs vehicle. #, p<0.05 vs vehicle. .dagger., p<0.01 vs ISO. .dagger-dbl., p<0.05 vs ISO. n=4-15. […] Comparisons between multiple groups were made using ANOVA with post-hoc tests.
Tenofovir diphosphate (PMPA-PP), zidovudine monophosphate (MP), zidovudine diphosphate (PP), zidovudine triphosphate (TP), famciclovir penciclovir and valaciclovir were purchased from Moravek. Formycin A (FMA) and Formycin B (FMB) were purchased from Berry and Associates. All other reagents were from Sigma unless specified. Long-term infusion of isoproterenol (Sigma, St. Louis, Mo.) was performed for 7 days at a dose of 60 mg/kg/d with or without AC5 inhibitors by using a miniosmotic pump (ALZET model 2001, DURECT Corp, Cupertino, Calif.). Control mice received vehicle in pumps. Pumps were removed 24 hours before biochemical and physiological studies. Experiments were performed in 3- to 5-month-old male C57Bl/6, and in AC5Tg transgenic mice. This study was approved by the Animal Care and Use Committee at New Jersey Medical School.
as §1

[2] = tested on: mice, chronic ISO infusion; experiment: Treadmill exercise tolerance after chronic ISO; assay type: in vivo, mouse
Description: Treadmill exercise tolerance was performed as previously described. One week after pump implantation, pumps were removed under anesthesia. The next day after removal, mice were placed on a custom-built four-lane treadmill with an infrared detection system above the shock stimulus at a starting speed of 2 m/min. Every two minutes, the speed was increased by 4 m/min for 16 min or until the mouse could no longer run.

[3] = tested on: C57Bl/6 mice motor function; experiment: Rotarod performance test and pole test; assay type: in vivo, mouse; details: mouse
Description: In C57Bl/6 mice, Ara-Ade was chronically infused with an osmotic mini-pump at the indicated doses for 5 days. a) Each mouse was placed on a rod subjected to evaluate Rotarod performance. Mice were left for 1 min on the rod for habituation. The rod rotated gradually increasing from 4 to 40 rpm over the course of 5 min, and the time that mice could stay without failing was recorded. Five trials were conducted for each individual 10-25 min apart. As a positive control, 1-methyl 4-phenyl 1,2,3,6-tetrahydropyridine (MPTP) was intraperitoneally injected for the indicated dose for 5 days. *, p<0.01 relative to vehicle. #, p<0.05 relative to vehicle. n=6-7. b) To evaluate bradykinesia, a pole test was performed. Mice were placed head upward on the top of a rough surfaced pole that was wrapped with gauze to prevent slipping. The time until the mouse turned completely downward (open bars, TTURN) and the time until it climbed down to the floor (closed bars, TLA) were measured.
Four days after the implantation, Rotarod performance test and pole test were examined as previously described. For MPTP injection (1-methyl 4-phenyl 1,2,3,6-tetrahydropyridine), mice were injected intraperitoneally (i.p.) with 0.1 mL of PBS or MPTP dissolved in PBS at 24-hour intervals for 5 days. The daily dose of MPTP was 30 mg/kg. […]

[4] = tested on: mice after coronary occlusion; experiment: Coronary occlusion (post-MI) survival and echocardiography; assay type: in vivo, mouse
Description: Ara-Ade (50 mg/kg/day) was chronically infused with mini-osmotic pumps implanted subcutaneously 2-3 days before the coronary occlusion. […] (b) Echocardiography was performed at 16 days after coronary occlusion.

[5] = tested on: C57BL/6 mice, CAO 30 min / CAR; experiment: Mouse ischemia and reperfusion model; assay type: in vivo
Description: Mice were divided into three different groups. Group I was administered AC5 inhibitor chronically for three weeks prior to CAO for 30 minutes followed by CAR for 24 hours. Group II was administered the AC5 inhibitor by i.v. infusion for 5 minutes immediately prior to CAO for 30 minutes followed by CAR for 24 hours. Group III was administered the AC5 inhibitor by i.v. infusion for 5 minutes immediately following CAO for 30 minutes and during CAR for 24 hours. Vehicle controls were included for all three treatment groups.
3-4 month old male C57BL/6 mice purchased from Jackson Laboratory were anesthetized by an injection of 2% 2,2,2-tribromomethanol (0.66 mg/g i.p.; Aldrich Chemical, St. Louis, Mo.). The mice were then orally intubated and mechanically ventilated. The heart was accessed via a thoracotomy at the fourth intercostals space and 7-0 silk suture passed under the left anterior descending coronary artery (LAD) at the point where it emerged from under the left atrial flap. Myocardial ischemia was achieved by occluding the LAD against a 22-gauge J-shaped stainless steel probe and verified by visually noting the regional akinesis and blanching of the left ventrical. The chest was closed in layers, with the long end of the probe remaining outside the chest wall, allowing the animal to be removed from the ventilator. After 30 min. of ischemia, reperfusion was initiated by carefully pulling the probe out form the ligature and then removing it from the chest cavity. Following the surgical procedure, the mouse was allowed to recover on a warmed surface, with supplemental oxygen delivered from a nose cone. I/R were verified by three lead electrocardiograms, which were obtained preoperatively, at the end of the ischemic interval and immediately after the initiation of reperfusion. Mice fully recovered from the surgical procedure were returned to standard animal housing conditions. The mice were under either 24 hrs of reperfusion followed by sacrifice and dual staining of the heart with TTC and Alcian Blue or kept for 4 weeks to study the heart failure progression. For the long term study post ischemia and reperfusion, the animals underwent echocardiography recording at 4 days, 2 weeks and 4 weeks after reperfusion.

Water solubility = assay type: physicochemical
[6] = cited from earlier work
[7] = administration of 15 mg/kg/day; read-out: plasma Cmax; cited from earlier work
type 5 AC = type 5 AC (Homo sapiens, UniProt O95622); experiment: Double-reciprocal plots of type 5 AC catalytic activity against ATP
Description: Hearts and striatum were dissected from the mice and membrane preparations were made as previously described. This crude membrane preparation was used in the AC assay. AC activity was measured by a modification of the method of Salomon et al. as previously described. […] Double-reciprocal plots were examined as previously described.

[8] = 30 min CAO, 24 hr CAR, vehicle 36%

Sequence of type 5 AC (O95622 whole entry): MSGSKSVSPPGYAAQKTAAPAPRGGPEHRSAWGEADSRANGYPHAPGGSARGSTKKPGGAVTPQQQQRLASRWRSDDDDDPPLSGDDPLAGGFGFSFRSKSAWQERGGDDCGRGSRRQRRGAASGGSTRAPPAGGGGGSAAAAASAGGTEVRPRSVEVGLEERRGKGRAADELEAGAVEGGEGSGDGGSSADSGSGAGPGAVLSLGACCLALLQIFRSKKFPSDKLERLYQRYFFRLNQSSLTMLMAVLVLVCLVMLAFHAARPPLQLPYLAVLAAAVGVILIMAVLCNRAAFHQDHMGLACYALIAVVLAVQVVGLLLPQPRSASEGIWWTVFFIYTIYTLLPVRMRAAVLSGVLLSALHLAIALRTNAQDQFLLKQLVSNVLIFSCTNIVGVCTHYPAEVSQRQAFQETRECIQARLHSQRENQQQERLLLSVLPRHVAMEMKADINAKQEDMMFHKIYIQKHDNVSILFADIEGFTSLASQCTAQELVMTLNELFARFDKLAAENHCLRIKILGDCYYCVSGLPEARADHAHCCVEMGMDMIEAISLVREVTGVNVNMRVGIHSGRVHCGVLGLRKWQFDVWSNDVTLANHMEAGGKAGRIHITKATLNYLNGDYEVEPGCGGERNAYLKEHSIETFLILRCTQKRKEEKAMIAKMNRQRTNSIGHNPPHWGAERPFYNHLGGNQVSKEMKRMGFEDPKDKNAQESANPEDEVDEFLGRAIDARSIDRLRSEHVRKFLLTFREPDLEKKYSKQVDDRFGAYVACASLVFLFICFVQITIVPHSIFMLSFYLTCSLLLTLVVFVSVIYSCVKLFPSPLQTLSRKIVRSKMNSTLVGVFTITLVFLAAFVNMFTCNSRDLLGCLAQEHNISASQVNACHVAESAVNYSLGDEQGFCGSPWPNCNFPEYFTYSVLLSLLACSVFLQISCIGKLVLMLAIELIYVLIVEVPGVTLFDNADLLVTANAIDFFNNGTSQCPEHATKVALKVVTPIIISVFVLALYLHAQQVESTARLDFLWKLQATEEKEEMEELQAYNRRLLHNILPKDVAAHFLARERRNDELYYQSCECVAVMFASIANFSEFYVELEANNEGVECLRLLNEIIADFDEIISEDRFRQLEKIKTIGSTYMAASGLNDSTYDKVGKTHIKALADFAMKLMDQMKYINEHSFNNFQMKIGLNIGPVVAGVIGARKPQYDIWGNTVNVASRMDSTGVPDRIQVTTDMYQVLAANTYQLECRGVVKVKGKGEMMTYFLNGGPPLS

## Nc1ncnc2c1ncn2[C@@H]1O[C@H](CO)[C@@H](O)[C@@H]1O [Ara-Ade, 9-β-D-arabinofuranosyladenine]
H9C2 cells
  inhibition of cAMP accumulation in H9C2 cells: slight inhibition
Cardiac myocytes
  ISO-induced apoptosis in cultured cardiac myocytes: completely abolished
Cardiac myocytes; FIG. 3d
  effective concentration in inhibiting apoptosis: 10 µM
AC6
  inhibition of cAMP production, heart membrane preparation from AC6Tg: little inhibitory effect
[1]; ISO 60 mg/kg/d 7 days, Ara-Ade 20 and 100 mg/kg/day, 2′5′ ddAdo 20 mg/kg/day
  ISO-induced decrease in LVEF (and FS): rescued LVEF and FS reduction
[1]; chronic ISO infusion
  ISO-induced cardiac fibrosis: significantly inhibited
  ISO-induced myocardial apoptosis in vivo: significantly inhibited
  ISO-induced wall thickening (DESP, DPW): neither Ara-Ade nor 2′5′ ddAdo inhibited
  LVW/BW and myocyte cross sectional area: increased
[1]; vs vehicle
  survival rate during 1-week chronic ISO: higher
[2]
  maximum velocity in the treadmill test: rescued ISO-induced decrease in the maximum velocity
[3]
  BBB-permeability (concluded from motor tests): little BBB-permeability
[4]; 16 days after coronary occlusion
  LVEF after MI: prevented decrease in LVEF
[4]; Ara-Ade 50 mg/kg/day from 2-3 days before occlusion, chi-square at 16 days
  survival rate after coronary occlusion: significant increase in survival rate
[5]
  arterial pressure and heart rate: did not reduce arterial pressure and reflexly increase heart rate
[5]; [8]
  infarct size, drug administered before CAO or CAR: 21%
  infarct size, drug delivered at CAR: 16%
[5]; i.v. infusion after CAO, during or after reperfusion
  development of heart failure after ischemia and reperfusion: prevented development of heart failure
Water solubility
  water solubility: poorly water-soluble
[6]; 10 mg/kg, intravenously infusion for 30 min, read-out: Cmax in human
  Cmax: 4.8 µM
[6]; human, intravenous infusion 10 mg/kg, read-out: plasma Cmax
  Cmax: 4.8 µM
[7]
  Cmax: ~10 µM
Type 5 AC
  mode of inhibition with respect to ATP: non-competitive; also recorded: un-competitive or non-competitive
